Entries after “also recorded” stand apart in the source; their conditions may differ.
Assays:
[1] = system: hiPSC-derived innervated myofibers; test: Transient Calcium influx (Calcium handling) in hiPSC-derived innervated myofibers after drug addition; format: cell-based, human; conditions: for Calcium release: cells at D45, single addition
Experimental: A-D. We measured the transient Calcium influx in control myofibers prior to drug addition (0 hr) and at different time points after a single addition of different concentrations of each drug. Violin plots display the number of influx per minute and per fiber (n>50). Statistical significance was determined using ANOVA multiple comparison test followed by Brown-Forsythe and Welch correction and comparison to the basal condition (prior to drug addition). A. 0; 2 and 20 μM for Glutamate, B. 0; 1 and 10 μM for Salbutamol. C. 0; 0.5 and 1 mM for Carisoprodol. D. 0; 10 and 100 μM for Mexiletine.
Calcium transients were measured after addition to the cell culture medium of FLUO-8AM fluorescent Ca^2+ indicator (AAT Bioquest). Cells were incubated for 30 min at 37° c in DM+I medium containing 5 μM Fluo8-AM and 0.04% Pluronic acid before imaging on a Fast Imaging Observer system (Axio Observer.Z1/7; Zeiss) with a 10× lens (10×/0.30 M27 DIC I EC Plan-Neofluar; […]). Fluorescence was excited at 488 nm and emission collected at >509 nm. Images were acquired as time series. Different regions were tracked to record the fluorescent intensity at a 10× magnification during 30 seconds and an interval of 200,0 ms corresponding to 151 frames. Analysis was performed using the Zen pro software (Zeiss). ROI was created for selected fibers then intensity mean for each fiber was exported and Calcium transients were calculated by counting the number of peaks intensity for each graph.
For drug treatment, cells were seeded and differentiated in 6 to 12-well plates for 45 days. We tested the activity of Mexiletine (M2727, Sigma Aldrich, 10; 100 μM diluted in methanol), Carisoprodol (C8759, Sigma Aldrich, […]; […] diluted in ethanol), Salbutamol (S8260, Sigma Aldrich, 1 μM; 10 μM, diliuted in methanol) and L-Glutamic acid potassium salt monohydrate (G1501, Sigma Aldrich, 2 μM; 20 μM diluted in H2O) added at 0.1% in the culture medium on fiber contractions. Cell contractions were captured as described for Calcium handling measurements.
To evaluate the potential application of hiPSC-derived innervated myofibers as a preclinical model for drug testing, we tested the response to different classes of pharmaceutical agents by real time video microscopy and Calcium handling analysis. Cells at D45 were treated for different durations with different concentrations of each molecule at (FIG. 8A-D).

[2] = system: hiPSC-derived myofibers; format: cell-based, human

Compound: CCCC(C)(COC(N)=O)COC(=O)NC(C)C (centres unmarked) [Carisoprodol]
- muscle contraction (Calcium influx) ([1]; 0.5 to 1 mM, cells at D45): reduces muscle contraction 3 to 4 hrs

Compound: N[C@@H](CCC(=O)[O-])C(=O)[O-].O.[K+].[K+] [Glutamate, L-Glutamic acid potassium salt monohydrate]
- Calcium release ([1]; 2 μM): did not observe any difference
- Calcium release ([1]; 20 μM): increased activity 20 to 30 minutes

Compound: Cc1cccc(C)c1OCC(C)N (centres unmarked) [Mexiletine]
- Calcium handling ([1]; 10 μM, cells at D45): decrease in Calcium handling 2 hrs
- Calcium handling ([1]; 100 μM, cells at D45): sharp decrease 1 to 2 hrs

Compound: CC(C)(C)NCC(O)c1ccc(O)c(CO)c1 (centres unmarked) [Salbutamol]
- Ca2+ handling ([1]; 1 μM and 10 μM, cells at D45): decreases Ca^2+ handling as early as 4 hours

Compound: NC1=N[C@H](O)[C@H]2[C@H]3O[C@]4(O)O[C@@H]([C@@H](O)[C@@]2(N1)[C@@H]4O)[C@]3(O)CO [Tetrodotoxin]
- cell contraction after drug addition (mean number of contractions) [2]: irreversibly blocked; also recorded: irreversibly inhibits cell contraction

Compound: Alpha Bungarotoxin
- cell contraction after drug addition (mean number of contractions) [2]: irreversibly blocked; also recorded: irreversibly inhibits cell contraction

— patent US20230183647A1, “METHOD FOR GENERATING FUNCTIONAL SKELETAL MUSCLE FIBERS INNERVATED BY MOTONEURONS” (ASSOCIATION FRANCAISE CONTRE LES MYOPATHIES (AFM), priority 2020, published 2023)
